{"source": "patent US7297332B2", "about": "“Protease, a gene therefor and the use thereof” (Korean Research Institute of Bioscience and Biotechnology, priority 2000, dated 2007)", "system": "protease derived from Aranicola proteolyticus", "test": "Effect of protease inhibitors on the protease (azocasein assay)", "assay_type": "biochemical, Aranicola proteolyticus HY-3", "settings": "for inhibition of the enzyme activity: 1 mM inhibitor, incubated at 37° C. for 5 minutes, azocasein substrate; for effect of metalloprotease inhibitor on protease activity: equal concentrations of inhibitors, FIG. 1", "method": "Enzyme activity of the protease was measured according to the method described by Braun & Shmitz (Braun, V. & Schmitz, G., Arch. Microbiol. 124, 55-61, 1980). A substrate solution was prepared by dissolving 0.24 g of azocasein in 10 ml of 50 mM phosphate buffer (pH 7.5). The 300 □ of the substrate solution was mixed with 100 □ of bacterial culture solution and reacted at 37° C. for 30 minutes. Then, 300 □ of 10% trichloride acetate was added to the reaction solution and incubated at ambient temperature for 1 hour. The reaction solution was centrifuged at 7,000 rpm until pellet and supernatant was separated substantially. After adding 30 0 of 10% sodium hydroxide (NaOH) to the supernatant, the absorbance was measured at 420 nm. The enzymatic titer was defined as 1 unit by the 1.0 fold increment of absorbance value.\nIn order to examine the effects of protease inhibitors on the activity of the protease, the enzyme solution was added by 1 mM each of inhibitors enumerated below and incubated at 37° C. for 5 minutes before measuring relative enzyme activity. The inhibitors tested include antopain which is an aminopeptidase inhibitor, phosphoramidon which is a metalloendopeptidase inhibitor, pepstatin which is an aspartate protease inhibitor, E-64(L-trans-exoxysuccinyl leucylamido(4-fuanidino)butane) which is a cystein inhibitor, chymostatin which is a chymotrypsin inhibitor, leupeptin, petabloc SC, aprotinin, and PMSF which are serine protease inhibitors, phenanthroline and EDTA which are metalloprotease inhibitors.", "note": "Entries after “also recorded” stand apart in the source; their conditions may differ.", "data": [{"compound": "c1cnc2c(c1)ccc1cccnc12", "note": "[phenanthroline]", "values": [{"measurement": "inhibition of the enzyme activity", "value": "about 70%"}, {"measurement": "effect of metalloprotease inhibitor on protease activity", "value": "lowered; also recorded: inhibited"}]}, {"compound": "O=C(O)CN(CCN(CC(=O)O)CC(=O)O)CC(=O)O", "note": "[EDTA]", "values": [{"measurement": "inhibition of the enzyme activity", "value": "about 30%"}, {"measurement": "effect of metalloprotease inhibitor on protease activity", "value": "lowered; also recorded: inhibited"}]}]}
